Measured values as given in PMC11089505, “Structural Elucidation and Antiviral Activity of Covalent Cathepsin L Inhibitors” (Journal of Medicinal Chemistry, 2024).
“And” between values parts separate entries of the source, which are not always exact repeats. Identical values can stand only once. Like-named read-outs stand apart in the source and are kept apart here. Peptide text beside a SMILES is read from it. * marks the point of attachment. Cbz = O=C(OCc1ccccc1)*

Tests used:
SARS-CoV-2 Mpro = SARS-CoV-2 Mpro (Severe acute respiratory syndrome coronavirus 2, UniProt P0DTD1); type: binding; conditions: for ΔTm (for Mpro), 2:1 compound to protein mixing ratio: 8 µM Mpro, pH 7.5, 2% DMSO; for 2:1, Tm average (Mpro): 2:1 compound to protein
CatL [1] = molecular target: T1, CatL (Homo sapiens, UniProt P07711, T223A); experiment: CatL inhibition assay (Ki), substrate Z-RR-AMC; type: biochemical
T1 construct: made in house; host or cells: Komagataella pastoris strain GS115
Method: Experiments were performed in a solution of 50 mM sodium acetate, pH 4.0, 50 mM NaCl, 0.1% PEG 6000, and 5 mM DTT. Distinct assays with epoxide inhibitors at pH 6.0 were performed in 50 mM sodium phosphate buffer, 50 mM NaCl, 5 mM DTT, 0.1% PEG 6000, adjusted to pH 6.0.
M1000 pro plate reader (Tecan), the fluorescent peptide substrate Z-RR-AMC, and excitation and emission wavelengths of 370 and 460 nm, respectively.
At first, the inhibitor concentration span was optimized for each inhibitor and the assay buffer. For this initial screening, CatL (5 nM) was mixed with different concentrations of inhibitors (1 nM–50 μM) to determine the range of their inhibition. […] Reaction data were fitted to the […] in GraphPad Prism 9 software: Y = bottom + (top – bottom)/(1 + 10^∧((log IC50 – X) × HillSlope)); X is the log of dose or concentration, Y is the response (fluorescence signal), decreasing as X increases, top and bottom are the plateaus in the same units as Y, log IC50 same log units as X, HillSlope is the slope factor or called the Hill slope.

CatL [2] = molecular target: T1, CatL; experiment: NanoDSF, thermal stability of CatL; type: binding
[3] = Cell viability assay (CellTiter-Blue); conditions: African green monkey
[4] = 5 µM CatL, pH 5.0, 2% DMSO, 20:1

T1 sequence (P07711 114-333 T223A): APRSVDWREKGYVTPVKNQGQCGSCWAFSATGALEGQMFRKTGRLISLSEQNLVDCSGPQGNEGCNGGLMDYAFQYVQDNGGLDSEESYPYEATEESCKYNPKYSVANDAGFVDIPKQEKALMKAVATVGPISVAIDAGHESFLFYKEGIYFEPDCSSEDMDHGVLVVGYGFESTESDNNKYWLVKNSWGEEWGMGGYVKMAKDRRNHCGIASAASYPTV

Compound: CC(C)(C)OC(=O)Nc1cccn([C@@H](CC2CC2)C(=O)N[C@@H](C[C@@H]2CCNC2=O)C(=O)C(=O)NCc2ccccc2)c1=O [13b, tert-Butyl N-[1-[(2S)-1-[[(2S)-4-(benzylamino)-3,4-dioxo-1-[(3S)-2-oxopyrrolidin-3-yl]butan-2-yl]amino]-3-cyclopropyl-1-oxopropan-2-yl]-2-oxopyridin-3-yl]carbamate]
- ΔTm (for Mpro), 2:1 compound to protein mixing ratio (SARS-CoV-2 Mpro): 15,7 ± 0,1 °C and 15.7 °C
- 2:1, Tm average (Mpro) (SARS-CoV-2 Mpro): 70.3 °C
- Residual activity (Vi/V0) (CatL [1]; 13b 31.346 nM): 0.9675 and 0.9627 and 0.6897 and 0.9692 and 0.9864 and 0.9669
- Residual activity (Vi/V0) (CatL [1]; 13b 52.243 nM): 0.8888 and 0.9182 and 0.9209 and 0.8812 and 0.9125
- remaining activity at 0.052243 µM (CatL [1]; 13b 52.243 nM, read-out: Residual activity (Vi/V0)): 90.6%
- Residual activity (Vi/V0) (CatL [1]; 13b 87.071 nM): 0.8265 and 0.8739 and 0.8771 and 0.8407 and 0.8552
- remaining activity at 0.087071 µM (CatL [1]; 13b 87.071 nM, read-out: Residual activity (Vi/V0)): 84.2%
- Residual activity (Vi/V0) (CatL [1]; 13b 145.119 nM): 0.7626 and 0.6965 and 0.7661 and 0.7352 and 0.7663
- remaining activity at 0.145119 µM (CatL [1]; 13b 145.119 nM, read-out: Residual activity (Vi/V0)): 77.4%
- Residual activity (Vi/V0) (CatL [1]; 13b 241.865 nM): 0.6661 and 0.7001 and 0.6736 and 0.645 and 0.6598
- Residual activity (Vi/V0) (CatL [1]; 13b 403.108 nM): 0.5626 and 0.5615 and 0.5111 and 0.5683 and 0.5779
- remaining activity at 0.403108 µM (CatL [1]; 13b 403.108 nM, read-out: Residual activity (Vi/V0)): 56.2%
- Residual activity (Vi/V0) (CatL [1]; 13b 671.846 nM): 0.4836 and 0.4354 and 0.4683 and 0.4708 and 0.465
- remaining activity at 0.671846 µM (CatL [1]; 13b 671.846 nM, read-out: Residual activity (Vi/V0)): 47.5%
- Residual activity (Vi/V0) (CatL [1]; 13b 1119.744 nM): 0.4051 and 0.4054 and 0.4004 and 0.3916 and 0.3989
- remaining activity at 1.11974 µM (CatL [1]; 13b 1119.744 nM, read-out: Residual activity (Vi/V0)): 38.3%
- Residual activity (Vi/V0) (CatL [1]; 13b 1866.240 nM): 0.3283 and 0.3165 and 0.3193 and 0.3153 and 0.3192
- remaining activity at 1.86624 µM (CatL [1]; 13b 1866.240 nM, read-out: Residual activity (Vi/V0)): 32.5%
- Residual activity (Vi/V0) (CatL [1]; 13b 3110.400 nM): 0.258 and 0.2535 and 0.24 and 0.2503 and 0.2489
- remaining activity at 3.1104 µM (CatL [1]; 13b 3110.400 nM, read-out: Residual activity (Vi/V0)): 24.7%
- Residual activity (Vi/V0) (CatL [1]; 13b 5184.000 nM): 0.1828 and 0.1618 and 0.1725 and 0.1795 and 0.1597
- Residual activity (Vi/V0) (CatL [1]; 13b 8640.000 nM): 0.1228 and 0.1221 and 0.1079 and 0.1237 and 0.1244
- remaining activity at 8.64 µM (CatL [1]; 13b 8640.000 nM, read-out: Residual activity (Vi/V0)): 12.4%
- Residual activity (Vi/V0) (CatL [1]; 13b 24000.000 nM): 0.04988 and 0.04656 and 0.04753 and 0.05569 and 0.04454
- remaining activity at 24 µM (CatL [1]; 13b 24000.000 nM, read-out: Residual activity (Vi/V0)): 4.42%
- Ki (CatL [1]; CatL, Z-RR-AMC, pH 4.0, 37 °C, read-out: Ki): 293 nM
- 2:1, Tm average (CatL) (CatL [2]): 68.7 °C
- 20:1, Tm average (CatL) (CatL [2]): 76.7 °C
- ΔTm (for CatL), 2:1 compound to protein mixing ratio (CatL [2]; pH 5): 5,6 ± 0,1 °C and 5.6 °C
- ΔTm (for CatL), 20:1 compound to protein mixing ratio (CatL [2]; pH 5): 13,6 ± 0,1 °C and 13.6 °C

Compound: CC(C)(C)OC(=O)NCC=O [BOCA, tert-Butyl N-2-oxoethylcarbamate]
- ΔTm (for Mpro), 2:1 compound to protein mixing ratio (SARS-CoV-2 Mpro): -0,3 ± 0,1 °C
- ΔTm (for Mpro), 2:1 compound to protein mixing ratio (SARS-CoV-2 Mpro; listed as N-BOCAAA): -0.3 °C
- 2:1, Tm average (Mpro) (SARS-CoV-2 Mpro): 54.7 °C
- ΔTm (for CatL), 20:1 compound to protein mixing ratio (CatL [2]; [4]): 4,4 ± 0,4 °C and 4.4 °C
- 2:1, Tm average (CatL) (CatL [2]; 2:1 compound to protein): 62.8 °C
- 20:1, Tm average (CatL) (CatL [2]; 20:1 compound to protein): 67.5 °C
- ΔTm [K] for CatL, 2:1 ratio (CatL [2]; Table S1, 2:1 ratio): -0.3 ± 0.1 K

Compound: CC(C)[C@H](NC(=O)OCc1ccccc1)C(=O)N[C@H](C=O)Cc1ccccc1 [CI-III, N-Cbz-Val-Phe-aldehyde] (Cbz-Val-Phe-aldehyde)
- 2:1, Tm average (Mpro) (SARS-CoV-2 Mpro): 54.5 °C
- remaining activity at 0.000282 µM (CatL [1]; read-out: Residual activity (Vi/V0), CI-III 0.282 nM): 60.4%
- remaining activity at 0.000404 µM (CatL [1]; read-out: Residual activity (Vi/V0), CI-III 0.404 nM): 45.4%
- remaining activity at 0.000576 µM (CatL [1]; read-out: Residual activity (Vi/V0), CI-III 0.576 nM): 33.4%
- remaining activity at 0.000824 µM (CatL [1]; read-out: Residual activity (Vi/V0), CI-III 0.824 nM): 23.1%
- remaining activity at 0.001176 µM (CatL [1]; read-out: Residual activity (Vi/V0), CI-III 1.176 nM): 16.3%
- remaining activity at 0.001681 µM (CatL [1]; read-out: Residual activity (Vi/V0), CI-III 1.681 nM): 10.8%
- remaining activity at 0.002401 µM (CatL [1]; read-out: Residual activity (Vi/V0), CI-III 2.401 nM): 6.67%
- remaining activity at 0.00343 µM (CatL [1]; read-out: Residual activity (Vi/V0), CI-III 3.430 nM): 4.1%
- 2:1, Tm average (CatL) (CatL [2]; 2:1 compound to protein): 75.2 °C
- 20:1, Tm average (CatL) (CatL [2]; 20:1 compound to protein): 81.2 °C

Compound: CC(C)[C@H](NC(=O)OCc1ccccc1)C(=O)N[C@H](C=O)Cc1ccccc1 [CIII] (Cbz-Val-Phe-aldehyde)
- viability at 48 h, 1e-05 µM [3]: 95.8%
- viability at 48 h, 0.0001 µM [3]: 95.4%
- viability at 48 h, 0.001 µM [3]: 94.2%
- viability at 48 h, 0.01 µM [3]: 95.3%
- viability at 48 h, 0.1 µM [3]: 96%
- viability at 48 h, 1 µM [3]: 98.9%
- viability at 48 h, 10 µM [3]: 100%

Compound: CC(C)C[C@@H](C=O)NC(=O)[C@@H](NS(=O)(=O)c1ccc(F)cc1)C(C)C [CIVI]
- viability at 48 h, 1e-05 µM [3]: 95.9%
- viability at 48 h, 0.0001 µM [3]: 96.7%
- viability at 48 h, 0.001 µM [3]: 93.8%
- viability at 48 h, 0.01 µM [3]: 95.9%
- viability at 48 h, 0.1 µM [3]: 95.1%
- viability at 48 h, 1 µM [3]: 98.8%
- viability at 48 h, 10 µM [3]: 98.3%

Compound: CCCC(NC(=O)C(CC(C)C)NC(=O)OCc1ccccc1)C(=O)C(=O)NCc1ccccn1 (stereo not shown) [CIXII]
- viability at 48 h, 1e-05 µM [3]: 98.9%
- viability at 48 h, 0.0001 µM [3]: 98.8%
- viability at 48 h, 0.001 µM [3]: 98.3%
- viability at 48 h, 0.01 µM [3]: 100%
- viability at 48 h, 0.1 µM [3]: 98.8%
- viability at 48 h, 1 µM [3]: 103%
- viability at 48 h, 10 µM [3]: 106%

Compound: CC[C@@H](C)[C@H](NS(=O)(=O)c1cccc2ccccc12)C(=O)N[C@H](C=O)Cc1c[nH]c2ccccc12 [CLIIV]
- viability at 48 h, 1e-05 µM [3]: 98.8%
- viability at 48 h, 0.0001 µM [3]: 101%
- viability at 48 h, 0.001 µM [3]: 98%
- viability at 48 h, 0.01 µM [3]: 100%
- viability at 48 h, 0.1 µM [3]: 98.7%
- viability at 48 h, 1 µM [3]: 102%
- viability at 48 h, 10 µM [3]: 101%

Compound: CN(C)C(=O)COC(=O)Cc1ccc(OC(=O)c2ccc(NC(=N)N)cc2)cc1 [Camostat]
- ΔTm (for Mpro), 2:1 compound to protein mixing ratio (SARS-CoV-2 Mpro): -0.4 °C
- 2:1, Tm average (Mpro) (SARS-CoV-2 Mpro): 54.6 °C
- ΔTm (for CatL), 20:1 compound to protein mixing ratio (CatL [2]; [4]): -0.2 °C
- 20:1, Tm average (CatL) (CatL [2]; 20:1 compound to protein): 62.9 °C

Compound: CCOC(=O)[C@H]1O[C@@H]1C(=O)N[C@@H](CC(C)C)C(=O)NCCC(C)C [E-64d, Ethyl (2S,3S)-3-[[(2S)-4-methyl-1-(3-methylbutylamino)-1-oxopentan-2-yl]carbamoyl]oxirane-2-carboxylate]
- ΔTm (for Mpro), 2:1 compound to protein mixing ratio (SARS-CoV-2 Mpro): -0,3 ± 0,3 °C
- ΔTm (for Mpro), 2:1 compound to protein mixing ratio (SARS-CoV-2 Mpro; listed as E-64d/Aloxistatin): -0.3 °C
- 2:1, Tm average (Mpro) (SARS-CoV-2 Mpro): 54.7 °C
- ΔTm (for CatL), 2:1 compound to protein mixing ratio (CatL [2]; 5 µM CatL, pH 5.0, 2% DMSO, 2:1): 4,5 ± 0,1 °C and 4.5 °C
- ΔTm (for CatL), 20:1 compound to protein mixing ratio (CatL [2]; [4]): 11,7 ± 0,4 °C and 11.7 °C
- 2:1, Tm average (CatL) (CatL [2]; 2:1 compound to protein): 67.6 °C
- 20:1, Tm average (CatL) (CatL [2]; 20:1 compound to protein): 74.8 °C
- ΔTm [K] for CatL, 2:1 ratio (CatL [2]; Table S1, 2:1 ratio): 4.5 ± 0.1 K

Compound: CC(=O)N[C@@H](CC(C)C)C(=O)N[C@@H](CC(C)C)C(=O)N[C@H](C=O)CCCNC(=N)N [Leupeptin]
- ΔTm (for Mpro), 2:1 compound to protein mixing ratio (SARS-CoV-2 Mpro): 1,2 ± 0,1 °C and 1.2 °C
- 2:1, Tm average (Mpro) (SARS-CoV-2 Mpro): 56.2 °C

Compound: Cc1ccc(S(=O)(=O)N[C@@H](Cc2ccccc2)C(=O)CCl)cc1 [TPCK, N-α-Tosyl-L-phenylalanyl chloromethyl ketone]
- 2:1, Tm average (CatL) (CatL [2]): 67.8 °C
- ΔTm [K] for CatL, 2:1 ratio (CatL [2]): 4.7 ± 0.1 K
- ΔTm (for CatL), 2:1 compound to protein mixing ratio (CatL [2]; pH 5): 4,7 ± 0,1 °C and 4.7 °C
- ΔTm (for CatL), 20:1 compound to protein mixing ratio (CatL [2]; pH 5): 7,0 ± 0,1 °C and 7 °C
